In PubChem BioAssay AID2060896 (Molecular Pharmacology Branch, DTP, NCI, 2025):

Test system: 941728-121-R-J1-PDC complex spheroid viability
Assay: Anticancer human tumor 941728-121-R-J1-PDC patient-derived lung adenocarcinoma cell line growth inhibition [RAS]
Conditions: for IC50: curve of first compound; for viability, T/C: stronger effect = lower value
Method in brief: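 Multi-cell-type spheroids: tumor cells plus HUVEC endothelial cells and mesenchymal stem cells. RAS-pathway inhibitors were combined with targeted agents, each dosed in half-log steps down from clinical Cmax, or from 10 microM when Cmax was unknown.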

[1] = second compound 0.000949 µM, first compound 0.00316 µM
[2] = second compound 0.000949 µM, first compound 0.01 µM
[3] = second compound 0.000949 µM, first compound 0.0316 µM
[4] = second compound 0.000949 µM, first compound 0.1 µM
[5] = second compound 0.003 µM, first compound 0.00316 µM
[6] = second compound 0.003 µM, first compound 0.01 µM
[7] = second compound 0.003 µM, first compound 0.0316 µM
[8] = second compound 0.003 µM, first compound 0.1 µM
[9] = second compound 0.00949 µM, first compound 0.00316 µM
[10] = second compound 0.00949 µM, first compound 0.01 µM
[11] = second compound 0.00949 µM, first compound 0.0316 µM
[12] = second compound 0.00949 µM, first compound 0.1 µM
[13] = second compound 0.03 µM, first compound 0.00316 µM
[14] = second compound 0.03 µM, first compound 0.01 µM
[15] = second compound 0.03 µM, first compound 0.0316 µM
[16] = second compound 0.03 µM, first compound 0.1 µM
[17] = second compound 0.0949 µM, first compound 0.00316 µM
[18] = second compound 0.0949 µM, first compound 0.01 µM
[19] = second compound 0.0949 µM, first compound 0.0316 µM
[20] = second compound 0.0949 µM, first compound 0.1 µM
[21] = second compound 0.3 µM, first compound 0.00316 µM
[22] = second compound 0.3 µM, first compound 0.01 µM
[23] = second compound 0.3 µM, first compound 0.0316 µM
[24] = second compound 0.3 µM, first compound 0.1 µM
[25] = second compound 0.000949 µM, first compound 0.316 µM
[26] = second compound 0.000949 µM, first compound 1 µM
[27] = second compound 0.003 µM, first compound 0.316 µM
[28] = second compound 0.003 µM, first compound 1 µM
[29] = second compound 0.00949 µM, first compound 0.316 µM
[30] = second compound 0.00949 µM, first compound 1 µM
[31] = second compound 0.03 µM, first compound 0.316 µM
[32] = second compound 0.03 µM, first compound 1 µM
[33] = second compound 0.0949 µM, first compound 0.316 µM
[34] = second compound 0.0949 µM, first compound 1 µM
[35] = second compound 0.3 µM, first compound 0.316 µM
[36] = second compound 0.3 µM, first compound 1 µM
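Note: spheroids exposed to compounds for 7 days before readout.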
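Throughout, for viability, T/C: 100% = DMSO vehicle control viability.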

CC(C)n1nc(-c2ccc3oc(N)nc3c2)c2c(N)ncnc21 + CCn1c(-c2cc(N3CCN(C)CC3)cnc2C(C)OC)c2c3cc(ccc31)-c1csc(n1)CC(NC(=O)C1CC1C)C(=O)N1CCCC(N1)C(=O)OCC(C)(C)C2
IC50 (second compound 0.000949 µM): < 0.316 nM
IC50 (second compound 0.003 µM): < 0.316 nM
IC50 (second compound 0.00949 µM): < 0.316 nM
IC50 (second compound 0.03 µM): < 0.316 nM
IC50 (second compound 0.0949 µM): < 0.316 nM
IC50 (second compound 0.3 µM): < 0.316 nM
viability, T/C (second compound 0.000949 µM, first compound 0.000316 µM): 25.5%
viability, T/C (second compound 0.000949 µM, first compound 0.001 µM): 27.6%
viability, T/C [1]: 18.6%
viability, T/C [2]: 20.2%
viability, T/C [3]: 16.9%
viability, T/C [4]: 11.1%
viability, T/C (second compound 0.003 µM, first compound 0.000316 µM): 24.6%
viability, T/C (second compound 0.003 µM, first compound 0.001 µM): 20.8%
viability, T/C [5]: 16%
viability, T/C [6]: 14.4%
viability, T/C [7]: 10.9%
viability, T/C [8]: 8.48%
viability, T/C (second compound 0.00949 µM, first compound 0.000316 µM): 17.6%
viability, T/C (second compound 0.00949 µM, first compound 0.001 µM): 16%
viability, T/C [9]: 16.3%
viability, T/C [10]: 11.6%
viability, T/C [11]: 8.78%
viability, T/C [12]: 5.45%
viability, T/C (second compound 0.03 µM, first compound 0.000316 µM): 13.4%
viability, T/C (second compound 0.03 µM, first compound 0.001 µM): 14.6%
viability, T/C [13]: 13.4%
viability, T/C [14]: 10.7%
viability, T/C [15]: 6.44%
viability, T/C [16]: 6.86%
viability, T/C (second compound 0.0949 µM, first compound 0.000316 µM): 12.7%
viability, T/C (second compound 0.0949 µM, first compound 0.001 µM): 14.2%
viability, T/C [17]: 12.8%
viability, T/C [18]: 11.6%
viability, T/C [19]: 6.3%
viability, T/C [20]: 6.4%
viability, T/C (second compound 0.3 µM, first compound 0.000316 µM): 13.4%
viability, T/C (second compound 0.3 µM, first compound 0.001 µM): 13.9%
viability, T/C [21]: 12.9%
viability, T/C [22]: 11.2%
viability, T/C [23]: 7.62%
viability, T/C [24]: 7.03%

CCN1CCN(Cc2ccc(Nc3ncc(F)c(-c4cc(F)c5nc(C)n(C(C)C)c5c4)n3)nc2)CC1 + CCn1c(-c2cc(N3CCN(C)CC3)cnc2C(C)OC)c2c3cc(ccc31)-c1csc(n1)CC(NC(=O)C1CC1C)C(=O)N1CCCC(N1)C(=O)OCC(C)(C)C2
IC50 (second compound 0.000949 µM): < 3.16 nM
IC50 (second compound 0.003 µM): < 3.16 nM
IC50 (second compound 0.00949 µM): < 3.16 nM
IC50 (second compound 0.03 µM): < 3.16 nM
IC50 (second compound 0.0949 µM): < 3.16 nM
IC50 (second compound 0.3 µM): < 3.16 nM
viability, T/C [1]: 27%
viability, T/C [2]: 29.4%
viability, T/C [3]: 18.9%
viability, T/C [4]: 27.1%
viability, T/C [25]: 23.3%
viability, T/C [26]: 16.6%
viability, T/C [5]: 22.8%
viability, T/C [6]: 19.8%
viability, T/C [7]: 14.4%
viability, T/C [8]: 18.9%
viability, T/C [27]: 17.7%
viability, T/C [28]: 9.4%
viability, T/C [9]: 15.1%
viability, T/C [10]: 13.4%
viability, T/C [11]: 13.7%
viability, T/C [12]: 11.1%
viability, T/C [29]: 12.1%
viability, T/C [30]: 10.4%
viability, T/C [13]: 13.2%
viability, T/C [14]: 14.1%
viability, T/C [15]: 11.8%
viability, T/C [16]: 10.1%
viability, T/C [31]: 6.16%
viability, T/C [32]: 11.3%
viability, T/C [17]: 13.4%
viability, T/C [18]: 11.8%
viability, T/C [19]: 10.1%
viability, T/C [20]: 9.14%
viability, T/C [33]: 7.16%
viability, T/C [34]: 9.08%
viability, T/C [21]: 11.3%
viability, T/C [22]: 11.9%
viability, T/C [23]: 11.7%
viability, T/C [24]: 8.41%
viability, T/C [35]: 6.3%
viability, T/C [36]: 10.6%

C[C@@H](NC(=O)c1ncnc(N)c1Cl)c1ncc(C(=O)Nc2cc(C(F)(F)F)c(Cl)cn2)s1 + CCn1c(-c2cc(N3CCN(C)CC3)cnc2C(C)OC)c2c3cc(ccc31)-c1csc(n1)CC(NC(=O)C1CC1C)C(=O)N1CCCC(N1)C(=O)OCC(C)(C)C2
IC50 (second compound 0.000949 µM): < 31.6 nM
IC50 (second compound 0.003 µM): < 31.6 nM
IC50 (second compound 0.00949 µM): < 31.6 nM
IC50 (second compound 0.03 µM): < 31.6 nM
IC50 (second compound 0.0949 µM): < 31.6 nM
IC50 (second compound 0.3 µM): < 31.6 nM
viability, T/C [3]: 28.7%
viability, T/C [4]: 30.9%
viability, T/C [25]: 22.4%
viability, T/C [26]: 34%
viability, T/C (second compound 0.000949 µM, first compound 3.16 µM): 33.6%
viability, T/C (second compound 0.000949 µM, first compound 10 µM): 24.5%
viability, T/C [7]: 27.8%
viability, T/C [8]: 24.4%
viability, T/C [27]: 22.4%
viability, T/C [28]: 24.9%
viability, T/C (second compound 0.003 µM, first compound 3.16 µM): 27.9%
viability, T/C (second compound 0.003 µM, first compound 10 µM): 20%
viability, T/C [11]: 19.1%
viability, T/C [12]: 15.5%
viability, T/C [29]: 21.6%
viability, T/C [30]: 21.9%
viability, T/C (second compound 0.00949 µM, first compound 3.16 µM): 19.7%
viability, T/C (second compound 0.00949 µM, first compound 10 µM): 17.9%
viability, T/C [15]: 14.1%
viability, T/C [16]: 16.5%
viability, T/C [31]: 17.1%
viability, T/C [32]: 15.4%
viability, T/C (second compound 0.03 µM, first compound 3.16 µM): 15.4%
viability, T/C (second compound 0.03 µM, first compound 10 µM): 14.9%
viability, T/C [19]: 13.6%
viability, T/C [20]: 15.7%
viability, T/C [33]: 14.3%
viability, T/C [34]: 14.3%
viability, T/C (second compound 0.0949 µM, first compound 3.16 µM): 11.7%
viability, T/C (second compound 0.0949 µM, first compound 10 µM): 13.6%
viability, T/C [23]: 13.8%
viability, T/C [24]: 13.7%
viability, T/C [35]: 15.6%
viability, T/C [36]: 13.8%
viability, T/C (second compound 0.3 µM, first compound 3.16 µM): 12.3%
viability, T/C (second compound 0.3 µM, first compound 10 µM): 11.9%
